Read-outs that look alike come from different tables or passages of the source.
Columns and labels:
[1] = target: T1, human SXR ligand binding domain (Homo sapiens, UniProt O75469); test: Gal-L-SXR (Gal-SXR) Gal4 reporter transient transfection assay in CV-1 cells
T1 sequence (O75469 107-434 limits assumed): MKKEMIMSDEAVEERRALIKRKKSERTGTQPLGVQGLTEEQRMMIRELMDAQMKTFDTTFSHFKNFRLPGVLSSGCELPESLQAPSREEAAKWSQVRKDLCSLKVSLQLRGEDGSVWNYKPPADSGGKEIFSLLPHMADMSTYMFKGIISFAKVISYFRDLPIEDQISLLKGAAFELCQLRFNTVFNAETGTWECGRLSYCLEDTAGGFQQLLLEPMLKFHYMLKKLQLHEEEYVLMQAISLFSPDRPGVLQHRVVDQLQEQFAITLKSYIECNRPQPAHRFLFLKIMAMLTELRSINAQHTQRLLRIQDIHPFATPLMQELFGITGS
Excerpt: Use of a standard model heterologous cell system to reconstitute SXR agonist and antagonist responsiveness allows SXR activity to be monitored in the absence of the metabolic events which may obscure the process being tested. Any suitable heterologous cell system may be used to test the activation of potential or known SXR nuclear receptor ligands, as long as the cells are capable of being transiently transfected with the appropriate DNA which expresses receptors, reporter genes, response elements, and the like. Cells which constitutively express one or more of the necessary genes may be used as well. Cell systems that are suitable for the transient expression of mammalian genes and which are amenable to maintenance in culture are well known to those skilled in the art. […] Suitable reporter gene constructs are well known to skilled workers in the fields of biochemistry and molecular biology. Activity of the reporter gene can be conveniently normalized to the internal control and the data plotted as fold activation relative to untreated cells.
The Gal4 reporter activity was normalized to the internal β-galactosidase control and the data plotted as fold activation relative to untreated cells. All transfections contained the Gal4 reporter and a β-galactosidase expression vector as an internal control.
(§1) Izbicka et al., Ann. Oncol.
Gal-PXR containing the ligand binding domain of mouse PXR (#AF031814) was obtained from Bruce Blumberg.
Transient Transffection Assays—CV-1 cells were grown and transfected as described.

mouse CARβ = target: T2, mouse CARβ (Mus musculus, UniProt O35627); test: Nuclear receptor specificity transfection assay / LXRE×3-TK-luc reporter with CARβ in CV-1 cells; type: cell-based; settings: LXRE×3-TK-luc reporter; 5 μM androstanol or 50 nM ET-743
T2 sequence (O35627 1-358): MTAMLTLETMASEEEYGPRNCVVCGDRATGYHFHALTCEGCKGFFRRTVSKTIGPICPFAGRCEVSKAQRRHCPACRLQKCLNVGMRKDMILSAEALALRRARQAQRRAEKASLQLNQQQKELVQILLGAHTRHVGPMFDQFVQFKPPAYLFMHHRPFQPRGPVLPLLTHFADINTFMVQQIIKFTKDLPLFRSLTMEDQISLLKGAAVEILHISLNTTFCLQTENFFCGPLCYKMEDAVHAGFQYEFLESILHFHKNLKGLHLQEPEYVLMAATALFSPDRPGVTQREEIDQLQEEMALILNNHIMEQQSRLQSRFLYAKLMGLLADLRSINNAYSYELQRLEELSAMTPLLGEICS

CV-1 cells [2] = tested on: CV-1 cells
[3] = tested on: cancer cell-lines and human xenografts; settings: variety of cancer cell-lines and human xenografts; read-out: IC50s for inhibition of proliferation; cited from earlier work
CYP2C8 mRNA = settings: primary human hepatocytes; 10 μM (LG268 100 nM); 48 hours
Protocol: Northern analysis was performed as follows. Primary human hepatocytes were obtained from Clonetics (Walkersville, Md.) and maintained in Hepatocyte Maintenance Medium supplemented with dexamethasone and insulin according to the vendors instructions. Cells were treated with the indicated SXR agonists for 48 hours and total RNA was isolated using the Trizol reagent.
(§2) Northern Blot Analysis—Primary human hepatocytes were obtained from Clonetics (Walkersville, Md.) and cultured according to the vendors instructions. Cells were treated with the indicated compounds for 24 hours and total RNA was isolated using the Trizol reagent.
(§3) After 24 hour exposure to the compounds, total RNA was prepared and analyzed by northern analysis using probes for MDR1 and the GAPDH control.

MRP2 mRNA = test: Northern analysis of MRP2 expression in primary human hepatocytes; type: cell-based; settings: primary human hepatocytes; 2.5 μM hyperforin, 10 μM rifampicin, 10 μM SR12813; 24 hour
Protocol: as §2
After 24 hour exposure to the compounds, total RNA was prepared and analyzed by northern analysis using probes for MRP2 and the GAPDH control. […] CV-1 cells were transiently transfected with a Gal4 reporter and a vector expressing Gal4-fused to the ligand binding domain of human SXR (Gal-SXR).
as §3

MDR1 mRNA = test: Northern analysis of MDR1 expression in human LS180 cells; type: cell-based; settings: 10 μM, 24 hours
Protocol: as §1, §2, §3

[4] = tested on: LS180 human colon cancer cells; test: [14C]-paclitaxel efflux from pretreated LS180 cells; type: cell-based; settings: LS180 cells induced 48 hours with 10 μM paclitaxel, 10 μM docetaxel or 100 nM LG268
Protocol: Taxane-induced drug efflux was measured using pretreated LS180 human colon cancer cells. The rate of drug efflux was measured. […] Individual data points are the means of triplicate determinations, error bars represent standard deviation and the lines are lines of regression. The slope of each line (rate of efflux) was compared to the slope obtained in the control (untreated) cells using an analysis of covariance. […] The entire experiment was performed three times with similar results. […] The cells were then incubated in media supplemented with 10 μM [^14C]-paclitaxel (4.9 μCi/umol, Moravek Biochemicals, Brea, Calif.) for 15 minutes. The uptake of ^14C-paclitaxel reached maximum levels at 10-12 minutes (data not shown). After 15 minutes, the cells were then rapidly centrifuged through silicone oil to remove all traces of extracellular radioactivity, resuspended in fresh media, and cell counts determined. At multiple time points over the next 10 minutes, triplicate aliquots of the cell suspension (approx. 1×10^5 cells/aliquot) were again centrifuged through silicon oil and the radioactivity in the cell pellet measured by quench-corrected liquid scintillation counting. The rate of [^14C]-paclitaxel efflux was determined as the slope of the [^14C]-paclitaxel versus time plots using all data. The slope for each inducer was compared to the slope obtained in the control (untreated) cells using an analysis of covariance.

[5] = target: SXR interaction with nuclear corepressor SMRT (Homo sapiens, UniProt O75469); test: Mammalian two-hybrid SXR-corepressor interaction assay; type: cell-based; settings: CV-1 cells; 10 μM
[6] = target: SXR coactivator interaction (SRC1, ACTR, GRIP, PBP) (Homo sapiens, UniProt O75469); settings: CV-1 cells; 10 μM docetaxel
CV-1 cells [7] = test: Potential cytotoxic effects at the concentrations and treatment times used; settings: at the indicated concentrations and treatment times

SMILES: COc1cc2c(cc1O)CCN[C@]21CS[C@@H]2c3c(OC(C)=O)c(C)c4c(c3[C@H](COC1=O)N1[C@@H]2[C@H]2c3c(cc(C)c(OC)c3O)C[C@@H]([C@@H]1O)N2C)OCO4 [ET-743, ecteinascidin-743]
- inhibition of SR12813- and paclitaxel-induced activation of Gal-L-SXR ([1]; 50 nM ET-743, 10 μM SR12813 or 10 μM paclitaxel): extremely potent and effective inhibitor
- concentrations of maximal inhibition of SXR ([1]; wild-type SXR and Gal-L-SXR, 10 μM SR12813): 25 to 50 nM
- effect on transcriptional activity of CARβ (mouse CARβ): no effect
- potential cytotoxic effects (CV-1 cells [2]): minimal
- IC50 [3]: 1 to 100 nM

SMILES: CCOP(=O)(OCC)C(=Cc1cc(C(C)(C)C)c(O)c(C(C)(C)C)c1)P(=O)(OCC)OCC [SR12813]
- CYP2C8 mRNA expression (CYP2C8 mRNA): less than that seen with other SXR agonists
- MRP2 mRNA expression (MRP2 mRNA): induced expression

SMILES: CC(=O)O[C@@]12CO[C@@H]1C[C@H](O)[C@@]1(C)C(=O)[C@H](O)C3=C(C)[C@@H](OC(=O)[C@H](O)[C@@H](NC(=O)OC(C)(C)C)c4ccccc4)C[C@@](O)([C@@H](OC(=O)c4ccccc4)[C@H]21)C3(C)C [docetaxel]
- activation of Gal-L-SXR [1]: did not effectively activate
- MDR1 mRNA expression (MDR1 mRNA): did not induce
- rate of [14C]-paclitaxel efflux versus untreated cells [4]: did not differ from controls
- effect on SXR-SMRT interaction [5]: little effect
- coactivator recruitment effect, less than that seen with paclitaxel [6]: 25-40%
- potential cytotoxic effects (CV-1 cells [7]): minimal
